Patent US11285127B2, “Compositions and methods for lowering triglycerides without raising LDL-C levels in a subject on concomitant statin therapy” (Amarin Pharmaceuticals Ireland Limited, priority 2013, dated 2022)

Tested on: patients with fasting triglyceride levels >200 mg/dl and <500 mg/dl despite statin therapy
Test: 12-week study: lipoprotein particle concentration (VLDL, LDL, HDL; nuclear magnetic resonance)
Type: in vivo, human
Details: for LDL Particle Concentration, Week 12 EP Median (IQR): MITT; for LDL Particle Concentration, Percent change from Baseline, Median (IQR) / LDL Particle Concentration, Difference from placebo, Estimated median: Week 12, MITT; for LDL Particle Concentration, Difference from placebo, Estimated median: difference in percent change
From the text: Parameters (a)-(z) can be measured in accordance with any clinically acceptable methodology. For example, triglycerides, total cholesterol, HDL-C and fasting blood sugar can be sample from serum and analyzed using standard photometry techniques. VLDL-TG, LDL-C and VLDL-C can be calculated or determined using serum lipoprotein fractionation by preparative ultracentrifugation and subsequent quantitative analysis by refractometry or by analytic ultracentrifugal methodology. Apo A1, Apo B and hsCRP can be determined from serum using standard nephelometry techniques. Lipoprotein (a) can be determined from serum using standard turbidimetric immunoassay techniques. LDL particle number and particle size can be determined using nuclear magnetic resonance (NMR) spectrometry. Remnants lipoproteins and LDL-phospholipase A2 can be determined from EDTA plasma or serum and serum, respectively, using enzymatic immunoseparation techniques. Oxidized LDL, intercellular adhesion molecule-1 and interleukin-2 levels can be determined from serum using standard enzyme immunoassay techniques. These techniques are described in detail in standard textbooks, for example Tietz Fundamentals of Clinical Chemistry, 6th Ed. (Burtis, Ashwood and Borter Eds.), WB Saunders Company.
A multi-center, placebo-controlled, randomized, double-blind, 12-week study was performed to evaluate the efficacy and safety of >96% E-EPA in patients with fasting triglyceride levels >200 mg/dl and <500 mg/dl despite statin therapy (the mean of two qualifying entry values needed to be >185 mg/dl and at least one of the values needed to be >200 mg/dl). The primary objective of the study was to determine the efficacy of >96% E-EPA 2 g daily and 4 g daily, compared to placebo, in lowering fasting TG levels in patients with high risk for cardiovascular disease and with fasting TG levels 200 mg/dl and <500 mg/dl, despite treatment to LDL-C goal on statin therapy.
The secondary objectives of this study were the following: • 1. To determine the safety and tolerability of >96% E-EPA 2 g daily and 4 g daily; • 2. To determine the effect of >96% E-EPA on lipid and apolipoprotein profiles including total cholesterol (TC), non-high-density lipoprotein cholesterol (non-HDL-C), low density lipoprotein cholesterol (LDL-C), high density lipoprotein cholesterol (HDL-C), and […]; • 3. To determine the effect of >96% E-EPA on lipoprotein associated phospholipase A2 (Lp-PLA2) from baseline to week 12; • 4. To determine the effect of >96% E-EPA on low-density lipoprotein (LDL) particle number and size; • 5. To determine the effect of >96% E-EPA on oxidized LDL; • 6. To determine the effect of >96% E-EPA on fasting plasma glucose (FPG) and hemoglobin A1c (HbA1c); • 7. To determine the effect of >96% E-EPA on insulin resistance; • 8. To determine the effect of >96% E-EPA on high-sensitivity C-reactive protein (hsCRP); • 9. To determine the effects of >96% E-EPA 2 g daily and 4 g daily on the incorporation of fatty acids into red blood cell membranes and into plasma phospholipids; • 10. To explore the relationship between baseline fasting TG levels and the reduction in fasting TG levels; and • 11. To explore the relationship between changes of fatty acid concentrations in plasma and red blood cell membranes, and the reduction in fasting TG levels.
The primary efficacy variable for the double-blind treatment period was percent change in TG from baseline to Week 12 endpoint. […]

[1] = 2 g/day, 12 weeks, placebo-adjusted Hodges-Lehmann median
[2] = 4 g/day, 12 weeks, placebo-adjusted Hodges-Lehmann median
[3] = 4 g/day, 12 weeks, placebo-adjusted Hodges-Lehmann median, listed as IPE
[4] = IPE 2 g/day (n = 222), 12 weeks

CC/C=C\C/C=C\C/C=C\C/C=C\C/C=C\CCCC(=O)OCC [AMR101, ethyl eicosapentaenoate]
IDL particle concentration, Median Change From Baseline IPE 2 g/day vs Placebo [1]: 8.6%
Large HDL particle concentration, Median Change From Baseline IPE 2 g/day vs Placebo [1]: −13.5%
Large LDL particle concentration, Median Change From Baseline IPE 2 g/day vs Placebo [1]: 26.5%
Large VLDL particle concentration, Median Change From Baseline IPE 2 g/day vs Placebo [1]: −24.2%
Medium HDL particle concentration, Median Change From Baseline IPE 2 g/day vs Placebo [1]: −4.5%
Medium VLDL particle concentration, Median Change From Baseline IPE 2 g/day vs Placebo [1]: 2.6%
Small HDL particle concentration, Median Change From Baseline IPE 2 g/day vs Placebo [1]: −0.2%
Small LDL particle concentration, Median Change From Baseline IPE 2 g/day vs Placebo [1]: −14.7%
Small VLDL particle concentration, Median Change From Baseline IPE 2 g/day vs Placebo [1]: 16.5%
Total HDL particle concentration, Median Change From Baseline IPE 2 g/day vs Placebo [1]: −3.1%
Total LDL particle concentration, Median Change From Baseline IPE 2 g/day vs Placebo [1]: −7.5%
Total VLDL particle concentration, Median Change From Baseline IPE 2 g/day vs Placebo [1]: 1.8%
Reduction of median concentration of small LDL particles over baseline when adjusted for placebo control (4 g per day, 12 weeks): 13.5%
Reduction of median concentration of total HDL over baseline when adjusted for placebo (4 g per day, 12 weeks): 7.4%
Reduction of median concentration of total LDL over baseline when adjusted for placebo (4 g per day, 12 weeks): 7.7%
Reduction of median concentration of total VLDL over baseline when adjusted for placebo (4 g per day, 12 weeks): 12.2%
IDL particle concentration, Median Change From Baseline IPE 4 g/day vs Placebo [2]: 10.0%
Medium HDL particle concentration, Median Change From Baseline IPE 4 g/day vs Placebo [2]: −6.5%
Small HDL particle concentration, Median Change From Baseline IPE 4 g/day vs Placebo [2]: −2.8%
Small LDL particle concentration, Median Change From Baseline IPE 4 g/day vs Placebo [2]: −13.5%
Small VLDL particle concentration, Median Change From Baseline IPE 4 g/day vs Placebo [2]: 2.8%
Total HDL particle concentration, Median Change From Baseline IPE 4 g/day vs Placebo [2]: −7.4%
Total LDL particle concentration, Median Change From Baseline IPE 4 g/day vs Placebo [2]: −7.7%
Total VLDL particle concentration, Median Change From Baseline IPE 4 g/day vs Placebo [2]: −12.2%
Large HDL particle concentration, Median Change From Baseline IPE 4 g/day vs Placebo [3]: −31.0%
Large LDL particle concentration, Median Change From Baseline IPE 4 g/day vs Placebo [3]: 34.2%
Large VLDL particle concentration, Median Change From Baseline IPE 4 g/day vs Placebo [3]: −46.4%
Medium VLDL particle concentration, Median Change From Baseline IPE 4 g/day vs Placebo [3]: −12.1%
Small LDL particle concentration, Median Change From Baseline IPE 4 g/day vs Placebo [3]: −13.5%
Total HDL particle concentration, Median Change From Baseline IPE 4 g/day vs Placebo [3]: −7.4%
Total LDL particle concentration, Median Change From Baseline IPE 4 g/day vs Placebo [3]: −7.7%
Total VLDL particle concentration, Median Change From Baseline IPE 4 g/day vs Placebo [3]: −12.2%
LDL Particle Concentration, Week 12 EP Median (IQR) (AMR101 2g/d + statin, n 222): 1215.0 (355.0) nmol/L
LDL Particle Concentration, Percent change from Baseline, Median (IQR) (AMR101 2g/d + statin): 4.7 (29.2) %
LDL Particle Concentration, Difference from placebo, Estimated median (AMR101 2g/d + statin): −7.5
LDL Particle Concentration, Week 12 EP Median (IQR) (AMR101 4g/d + statin, n 216): 1190.5 (512.0) nmol/L
LDL Particle Concentration, Percent change from Baseline, Median (IQR) (AMR101 4g/d + statin): 3.8 (31.8) %
LDL Particle Concentration, Difference from placebo, Estimated median (AMR101 4g/d + statin): −7.7
IDL particle concentration, Change from Baseline % (median) [4]: 10.5%
IDL particle concentration, End of Treatment (median) [4]: 63.5 nmol/L
Large HDL particle concentration, Change from Baseline % (median) [4]: −4.0%
Large HDL particle concentration, End of Treatment (median) [4]: 2.4 µmol/L
Large LDL particle concentration, Change from Baseline % (median) [4]: 47.7%
Large LDL particle concentration, End of Treatment (median) [4]: 202.0 nmol/L
Large VLDL particle concentration, Change from Baseline % (median) [4]: −19.7%
Large VLDL particle concentration, End of Treatment (median) [4]: 10 nM
Medium HDL particle concentration, Change from Baseline % (median) [4]: 2.9%
Medium HDL particle concentration, End of Treatment (median) [4]: 7.2 µmol/L
Medium VLDL particle concentration, Change from Baseline % (median) [4]: 7.9%
Medium VLDL particle concentration, End of Treatment (median) [4]: 59.6 nmol/L
Small HDL particle concentration, Change from Baseline % (median) [4]: −0.6%
Small HDL particle concentration, End of Treatment (median) [4]: 23.8 µmol/L
Small LDL particle concentration, Change from Baseline % (median) [4]: −4.3%
Small LDL particle concentration, End of Treatment (median) [4]: 920.5 nmol/L
Small VLDL particle concentration, Change from Baseline % (median) [4]: 22.1%
Small VLDL particle concentration, End of Treatment (median) [4]: 49.6 nmol/L
Total HDL particle concentration, Change from Baseline % (median) [4]: 0.7%
Total HDL particle concentration, End of Treatment (median) [4]: 34.7 µmol/L
Total LDL particle concentration, Change from Baseline % (median) [4]: 4.7%
Total LDL particle concentration, End of Treatment (median) [4]: 1215 nmol/L
Total VLDL particle concentration, Change from Baseline % (median) [4]: 12.0%
